Three compounds from patent US20240150301A1, “METHODS OF MODULATING ANDROGEN RECEPTOR CONDENSATES” (ETERN BIOPHARMA (SHANGHAI) CO., LTD., priority 2021, published 2024) can be followed below.

The target of one test is T1, AR (Homo sapiens, UniProt P10275).
T1 sequence (P10275 1-920 T878A): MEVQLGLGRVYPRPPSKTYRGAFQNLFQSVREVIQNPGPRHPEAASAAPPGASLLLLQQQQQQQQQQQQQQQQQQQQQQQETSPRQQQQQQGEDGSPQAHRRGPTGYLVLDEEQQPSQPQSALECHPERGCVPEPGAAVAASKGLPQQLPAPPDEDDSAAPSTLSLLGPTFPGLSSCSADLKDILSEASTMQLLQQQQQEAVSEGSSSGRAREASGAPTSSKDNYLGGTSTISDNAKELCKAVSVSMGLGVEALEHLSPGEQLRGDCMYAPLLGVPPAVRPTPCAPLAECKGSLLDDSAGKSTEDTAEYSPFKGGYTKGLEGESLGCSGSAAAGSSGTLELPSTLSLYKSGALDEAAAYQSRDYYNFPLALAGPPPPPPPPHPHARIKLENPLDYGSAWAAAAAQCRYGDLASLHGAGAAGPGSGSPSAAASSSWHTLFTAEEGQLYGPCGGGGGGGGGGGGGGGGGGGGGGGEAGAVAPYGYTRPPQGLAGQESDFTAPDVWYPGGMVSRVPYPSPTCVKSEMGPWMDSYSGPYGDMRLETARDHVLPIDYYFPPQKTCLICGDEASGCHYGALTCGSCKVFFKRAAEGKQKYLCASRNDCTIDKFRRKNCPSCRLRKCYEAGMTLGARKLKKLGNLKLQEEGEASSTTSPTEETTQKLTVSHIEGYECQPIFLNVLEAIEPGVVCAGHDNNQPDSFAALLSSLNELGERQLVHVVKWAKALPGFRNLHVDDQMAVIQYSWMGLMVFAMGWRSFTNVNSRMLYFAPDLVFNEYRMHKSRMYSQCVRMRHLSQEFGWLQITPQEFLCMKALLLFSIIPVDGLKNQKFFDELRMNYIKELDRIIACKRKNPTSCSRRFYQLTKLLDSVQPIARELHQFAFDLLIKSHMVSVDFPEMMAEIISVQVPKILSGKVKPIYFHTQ
The test is described as follows: ARE-luciferase reporter assay in LNCaP cells (DHT-induced). The test is classed as cell-based. Conditions: 1 nM DHT, 24 h, normalized to cell viability, read-out: LNCaP ARE-luc IC50. The procedure: (§1) The ARE-luciferase reporter plasmid contains functional AREs (androgen response elements) to which AR binds in response to androgen to induce luciferase activity. LNCaP (Cobioer) cells were transiently transfected with the ARE-luciferase reporter in charcoal stripped FBS/phenol red-free RPMI medium prior to treatment for 24 hours. Then DMSO or test compounds with serial diluted concentrations were added one hour prior to the addition of DHT(1 nM). After 24 h of incubation with DHT, cells were lysed and luciferase activity was assayed using the ONE-Glo™ Luciferase Assay System (Promega) and measured using EnVision Multimode Plate Reader, according to manufacturer's instructions. Values were normalized to cell viability determined by CellTiter-Glo® Luminescent Cell Viability Assay Kit (Promega). […] GraphPad Prism graphing software was used to calculate IC50 values.

The target of another test is T2, AR V7 (Homo sapiens, UniProt P10275).
T2 sequence (P10275 1-644 isoform P10275-3): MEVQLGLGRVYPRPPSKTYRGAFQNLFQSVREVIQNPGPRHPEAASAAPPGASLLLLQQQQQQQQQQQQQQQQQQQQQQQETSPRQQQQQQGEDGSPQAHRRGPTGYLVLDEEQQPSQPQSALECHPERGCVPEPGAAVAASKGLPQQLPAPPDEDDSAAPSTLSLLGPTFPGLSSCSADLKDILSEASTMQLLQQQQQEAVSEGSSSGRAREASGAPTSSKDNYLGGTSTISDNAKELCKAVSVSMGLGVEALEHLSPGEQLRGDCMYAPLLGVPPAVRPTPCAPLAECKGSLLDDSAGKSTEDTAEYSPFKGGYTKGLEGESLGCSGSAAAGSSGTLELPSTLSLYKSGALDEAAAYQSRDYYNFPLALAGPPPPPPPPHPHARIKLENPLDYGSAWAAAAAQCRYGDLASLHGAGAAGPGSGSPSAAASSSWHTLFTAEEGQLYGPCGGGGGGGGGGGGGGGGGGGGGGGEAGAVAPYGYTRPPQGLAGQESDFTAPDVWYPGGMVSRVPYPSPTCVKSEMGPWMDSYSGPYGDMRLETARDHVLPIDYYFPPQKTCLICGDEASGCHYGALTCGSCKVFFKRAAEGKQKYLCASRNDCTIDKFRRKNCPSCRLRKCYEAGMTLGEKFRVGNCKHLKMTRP
The test is described as follows: ARE-luciferase reporter assay in HEK293T cells cotransfected with AR-V7. Format: cell-based. Set-up: host or cells: HEK293T. Conditions: HEK293T cotransfected with AR-V7, hormone-starved, 24 h; read-out: HEK293T(V7) ARE-luc IC50. The procedure: as §1
To evaluate the transcriptional activity of AR-V7, HEK293T(Cobioer) cells were transiently cotransfected with an expression vector for AR-V7 and the ARE-luciferase reporter in hormone-starved conditions. For 22Rv1(Cobioer) prostate cancer cell line, which expresses endogenous AR-V7, ARE-luciferase reporter was transiently transfected in hormone-starved conditions. 24 h after transfection, DMSO or test compounds with serial diluted concentrations were added for additional 24 h incubation. Reporter activity was detected and normalized by cell viability as described above. Treatments were normalized to DMSO control activity, and IC50 values were further determined via GraphPad Prism graphing software.

Molecules are shown by their SMILES.

In the case of `CC(C)(c1ccc(C#Cc2cnc(NS(C)(=O)=O)nc2)cc1)c1cc(Cl)c(OCCCl)c(C#N)c1` [Compound 60, N-(5-((4-(2-(3-chloro-4-(2-chloroethoxy)-5-cyanophenyl)propan-2-yl)phenyl)ethynyl)pyrimidin-2-yl)methanesulfonamide], the IC50 at AR was 4.7 µM; on AR V7, 8.9 µM.
In the same order, the values of `CC(C)(c1ccc(OCc2ccnc(N=S3(=O)CCNCC3)n2)cc1)c1cc(Cl)c(OCCCl)c(C#N)c1` [Compound 6, 3-chloro-2-(2-chloroethoxy)-5-(2-(4-((2-((1-oxido-1λ^6-thiomorpholin-1-ylidene)amino)pyrimidin-4-yl)methoxy)phenyl)propan-2-yl)benzonitrile] are 3.5 µM and 2.1 µM.
In the same order, the values of `CC(C)(c1ccc(OCc2ccnc(NS(C)(=O)=O)n2)cc1)c1cc(Cl)c(OCCCl)c(C#N)c1` [Compound AA, N-(4-((4-(2-(3-chloro-4-(2-chloroethoxy)-5-cyanophenyl)propan-2-yl)phenoxy)methyl)pyrimidin-2-yl) methane sulfonamide, reference compound] are 12.6 µM and more than 20 µM.
